pIC50: −log10 of the molar value.
Tests used:
T-cell [1] = assay: IL-2 secretion from T-cells co-stimulated with anti-CD3 and anti-CD28 antibody (Biological Example 2); format: cell-based, human; conditions: Homo sapiens, T-cell, fold change over baseline, primary human total T-cells, read-out: IL-2 secretion Anti-CD3/Anti-CD28 stimulation; for fold induction at 0.3 µM: 0.3 μM Cbl-b inhibitor; for fold induction at 1 µM: 1 μM Cbl-b inhibitor; for fold induction at 4 µM: 4 μM Cbl-b inhibitor
Source text: (§1) Methods for experimentally determining increased T-cell activation, increased T-cell proliferation, decreased T-cell exhaustion, and/or decreased T-cell tolerance are well known in the art.
(§2) Modulation of activity of an immune cell, such as a T-cell, a B cell or a NK cell can be measured by determining a baseline value for a parameter of interest (e.g., cytokine secretion). […] A reference value then is obtained for T-cell activation after contacting or administering said Cbl-b inhibitor. The reference value is compared to the baseline value in order to determine the amount of T-cell activation due to contact or administration of the Cbl-b inhibitor or composition thereof. […] Immune cell activation can be assessed by measuring biological markers of activation such as increased cytokine secretion, increased cell surface expression of activation markers (e.g., cell surface markers), or increased phosphorylation of proteins in a downstream signaling pathway. The fold over baseline value that indicates immune cell activation can be determined for the parameter being tested and the conditions under which the immune cell were treated. For example, for measuring T-cell activation, a baseline value can be obtained from T-cells stimulated with anti-CD3 antibody in combination with anti-CD28 antibody, wherein the cells are not incubated with a Cbl-b inhibitor. […] A positive response for immune cell activation can then be determined by the obtained reference value. […]

T-cell [2] = assay: IL-2 secretion from T-cells stimulated with anti-CD3 antibody alone (Biological Example 2); format: cell-based, human; conditions: T-cell, fold change over baseline, primary human total T-cells, read-out: IL-2 secretion Anti-CD3 stimulation; for fold induction at 1 µM: 1 μM Cbl-b inhibitor; for fold induction at 8 µM: 8 μM Cbl-b inhibitor
Source text: as §1
(§3) Modulation of activity of an immune cell, such as a T-cell, a B cell or a NK cell can be measured by determining a baseline value for a parameter of interest (e.g., cytokine secretion). […] A reference value then is obtained for T-cell activation after contacting or administering said Cbl-b inhibitor. The reference value is compared to the baseline value in order to determine the amount of T-cell activation due to contact or administration of the Cbl-b inhibitor or composition thereof. […] Immune cell activation can be assessed by measuring biological markers of activation such as increased cytokine secretion, increased cell surface expression of activation markers (e.g., cell surface markers), or increased phosphorylation of proteins in a downstream signaling pathway. The fold over baseline value that indicates immune cell activation can be determined for the parameter being tested and the conditions under which the immune cell were treated. For example, for measuring T-cell activation, a baseline value can be obtained from T-cells stimulated with anti-CD3 antibody in combination with anti-CD28 antibody, wherein the cells are not incubated with a Cbl-b inhibitor. […] A positive response for immune cell activation can then be determined by the obtained reference value.
(§4) In some embodiments, a baseline value can be obtained from T-cells stimulated with anti-CD3 antibody alone, wherein the cells are not incubated with a Cbl-b inhibitor. In some embodiments, a positive response for T-cell activation as measured by cytokine secretion (e.g., IL-2 secretion) by T-cells stimulated with anti-CD3 antibody alone in the presence of a Cbl-b inhibitor is at least 0.1-fold over the baseline value for cytokine secretion (e.g., IL-2 secretion) obtained from T-cells stimulated with anti-CD3 antibody alone in the absence of a Cbl-b inhibitor. In some embodiments, a positive response for T-cell activation as measured by surface marker expression (e.g., CD25 surface marker staining) by T-cells stimulated with anti-CD3 antibody alone in the presence of a Cbl-b inhibitor is at least 0.6-fold over the baseline value for surface marker expression (e.g., CD25 surface marker staining) obtained from T-cells stimulated with anti-CD3 antibody alone in the absence of a Cbl-b inhibitor.

T-cell [3] = assay: CD25 cell surface staining on T-cells co-stimulated with anti-CD3 and anti-CD28 antibody (Biological Example 2); format: cell-based, human; conditions: Homo sapiens, T-cell, fold change over baseline, primary human total T-cells, read-out: CD25 staining Anti-CD3/Anti-CD28 stimulation; for fold induction at 0.3 µM: 0.3 μM Cbl-b inhibitor; for fold induction at 1 µM: 1 μM Cbl-b inhibitor; for fold induction at 4 µM: 4 μM Cbl-b inhibitor
Source text: as §1, §2

T-cell [4] = assay: CD25 cell surface staining on T-cells stimulated with anti-CD3 antibody alone (Biological Example 2); format: cell-based, human; conditions: T-cell, fold change over baseline, primary human total T-cells, read-out: CD25 staining Anti-CD3 stimulation; for fold induction at 1 µM: 1 μM Cbl-b inhibitor; for fold induction at 8 µM: 8 μM Cbl-b inhibitor
Source text: as §1, §3, §4

Cbl-b = Cbl-b (Homo sapiens, UniProt Q13191); assay: Cbl-b activity assay (Cbl-b inhibition assay), TR-FRET of Cbl-b interaction with UbcH5B-Ub; format: biochemical; conditions: assay buffer with 100 mM NaCl, 60 nM Src kinase; read-out: Cbl-b activity IC50
Chain of Cbl-b (Q13191 36-427): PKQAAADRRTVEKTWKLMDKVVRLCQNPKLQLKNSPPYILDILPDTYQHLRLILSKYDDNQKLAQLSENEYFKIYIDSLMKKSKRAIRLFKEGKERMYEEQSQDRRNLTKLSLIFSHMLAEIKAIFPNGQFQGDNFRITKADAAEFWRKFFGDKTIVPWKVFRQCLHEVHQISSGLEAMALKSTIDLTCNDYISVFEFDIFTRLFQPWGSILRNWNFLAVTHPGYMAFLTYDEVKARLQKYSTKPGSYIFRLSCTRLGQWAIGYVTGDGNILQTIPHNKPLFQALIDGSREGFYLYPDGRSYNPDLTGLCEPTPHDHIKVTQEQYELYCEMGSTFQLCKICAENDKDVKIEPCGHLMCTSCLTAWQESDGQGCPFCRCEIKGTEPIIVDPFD
Summary of the method: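 UbcH5B (C85K) conjugated to N-terminally Bodipy-Fluorescein-labeled ubiquitin served as the fluorescent partner. After compound preincubation, Src kinase (60 nM) with 1 mM ATP and 5 mM MgCl2 (final) was added for 1.5 h, followed by a further 1 h incubation. Some values were obtained with 50 mM NaCl and 30 nM Src.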

| Compound | fold induction at 0.3 µM (T-cell [1]) | fold induction at 1 µM (T-cell [1]) | fold induction at 4 µM (T-cell [1]) | fold induction at 1 µM (T-cell [2]) | fold induction at 8 µM (T-cell [2]) | fold induction at 0.3 µM (T-cell [3]) | fold induction at 1 µM (T-cell [3]) | fold induction at 4 µM (T-cell [3]) | fold induction at 1 µM (T-cell [4]) | fold induction at 8 µM (T-cell [4]) | pIC50 (Cbl-b) |
| --- | --- | --- | --- | --- | --- | --- | --- | --- | --- | --- | --- |
| C[C@H](Cc1nncn1C)c1cc(OCCO)nc(N2Cc3c(cccc3C(F)(F)F)C2=O)c1 [Compound 359, (R)-2-(6-(2-hydroxyethoxy)-4-(1-(4-methyl-4H-1,2,4-triazol-3-yl)propan-2-yl)pyridin-2-yl)-4-(trifluoromethyl)isoindolin-1-one] | 1.01 to 2.5 | 1.01 to 2.5 | 2.51 to 5 | 0.051 to 0.1 | > 0.201 | 1.01 to 1.3 | 1.01 to 1.3 | 1.31 to 1.5 | 0.601 to 0.8 | > 1 | 6.00 to 6.52 |
| CC1OCC1Oc1cc([C@H](C)Cc2nncn2C)cc(N2Cc3c(cccc3C(F)(F)F)C2=O)n1 (stereo partly drawn) [Compound 355, 2-(4-((R)-1-(4-methyl-4H-1,2,4-triazol-3-yl)propan-2-yl)-6-((2-methyloxetan-3-yl)oxy)pyridin-2-yl)-4-(trifluoromethyl)isoindolin-1-one] | 1.01 to 2.5 | 1.01 to 2.5 | 1.01 to 2.5 | 0.051 to 0.1 | 0.101 to 0.15 | 1.01 to 1.3 | 1.01 to 1.3 | 1.01 to 1.3 | 0.601 to 0.8 | 0.601 to 0.8 | 6.00 to 6.52 |
| C[C@H](Cc1nncn1C)c1cccc(NC(=O)c2cc3cccn3cn2)c1 [Compound 317, (R)-N-(3-(1-(4-Methyl-4H-1,2,4-triazol-3-yl)propan-2-yl)phenyl)pyrrolo[1,2-c]pyrimidine-3-carboxamide] | 1.01 to 2.5 | 1.01 to 2.5 | 1.01 to 2.5 | 0.051 to 0.1 | 0.101 to 0.15 | 1.01 to 1.3 | 1.01 to 1.3 | 1.01 to 1.3 | 0.601 to 0.8 | 0.801 to 1 | 6.00 to 6.52 |
| C[C@H](Cc1nncn1C)c1cc(NC2COC2)cc(N2Cc3c(cccc3C(F)(F)F)C2=O)c1 [Compound 350, 2-{3-[(2R)-1-(4-methyl-4H-1,2,4-triazol-3-yl)propan-2-yl]-5-[(oxetan-3-yl)amino]phenyl}-4-(trifluoromethyl)-2,3-dihydro-1H-isoindol-1-one] | < 1 | 1.01 to 2.5 | 1.01 to 2.5 | 0.051 to 0.1 | 0.051 to 0.1 | 1.01 to 1.3 | 1.01 to 1.3 | 1.01 to 1.3 | 0.601 to 0.8 | 0.801 to 1 | 6.00 to 6.52 |
| C[C@H](Cc1nncn1C)c1cccc(NC(=O)c2cc(C(F)(F)F)n[nH]2)c1 [Compound 314, (R)-N-(3-(1-(4-Methyl-4H-1,2,4-triazol-3-yl)propan-2-yl)phenyl)-3-(trifluoromethyl)-1H-pyrazole-5-carboxamide] | 1.01 to 2.5 | 1.01 to 2.5 | 1.01 to 2.5 | 0.051 to 0.1 | 0.101 to 0.15 | 1.01 to 1.3 | 1.01 to 1.3 | 1.01 to 1.3 | 0.601 to 0.8 | 0.601 to 0.8 | 6.00 to 6.52 |
| C[C@H](Cc1nncn1C)c1cccc(NC(=O)c2cn3ccnc3cn2)c1 [Compound 318, (R)-N-(3-(1-(4-Methyl-4H-1,2,4-triazol-3-yl)propan-2-yl)phenyl)imidazo[1,2-a]pyrazine-6-carboxamide] | 1.01 to 2.5 | 1.01 to 2.5 | 1.01 to 2.5 | 0.051 to 0.1 | 0.101 to 0.15 | < 1 | 1.01 to 1.3 | 1.01 to 1.3 | 0.601 to 0.8 | 0.801 to 1 | 6.00 to 6.52 |
| C[C@@H](Cc1nncn1C)c1cccc(NC(=O)c2cc(C3CC3)cc(C(F)(F)F)n2)c1 [Compound 322, (S)-4-Cyclopropyl-N-(3-(1-(4-methyl-4H-1,2,4-triazol-3-yl)propan-2-yl)phenyl)-6-(trifluoromethyl)picolinamide] | 1.01 to 2.5 | 1.01 to 2.5 | 1.01 to 2.5 | 0.051 to 0.1 | 0.101 to 0.15 | 1.01 to 1.3 | 1.01 to 1.3 | 1.01 to 1.3 | 0.601 to 0.8 | 0.601 to 0.8 | 6.00 to 6.52 |
| C[C@H](Cc1nncn1C)c1cccc(NC(=O)c2coc(C(F)(F)F)n2)c1 [Compound 315, (R)-N-(3-(1-(4-Methyl-4H-1,2,4-triazol-3-yl)propan-2-yl)phenyl)-2-(trifluoromethyl)oxazole-4-carboxamide] | < 1 | 1.01 to 2.5 | 1.01 to 2.5 | 0.051 to 0.1 | 0.101 to 0.15 | 1.01 to 1.3 | 1.01 to 1.3 | 1.01 to 1.3 | 0.601 to 0.8 | 0.801 to 1 | 6.00 to 6.52 |
| C[C@H](Cc1nncn1C)c1cccc(NC(=O)c2ccn3nccc3n2)c1 [Compound 316, (R)-N-(3-(1-(4-Methyl-4H-1,2,4-triazol-3-yl)propan-2-yl)phenyl)pyrazolo[1,5-a]pyrimidine-5-carboxamide] | 1.01 to 2.5 | 1.01 to 2.5 | 2.51 to 5 | 0.051 to 0.1 | 0.151 to 0.2 | 1.01 to 1.3 | 1.01 to 1.3 | 1.01 to 1.3 | 0.601 to 0.8 | > 1 | 6.00 to 6.52 |
| C[C@H](Cc1nncn1C)c1cccc(NC(=O)c2cnn3cccnc23)c1 [Compound 324, (R)-N-(3-(1-(4-Methyl-4H-1,2,4-triazol-3-yl)propan-2-yl)phenyl)pyrazolo[1,5-a]pyrimidine-3-carboxamide] | 1.01 to 2.5 | 1.01 to 2.5 | 1.01 to 2.5 | 0.051 to 0.1 | 0.051 to 0.1 | < 1 | < 1 | 1.01 to 1.3 | 0.601 to 0.8 | 0.601 to 0.8 | 6.00 to 6.52 |
